In patent US20230128114A1, “METHODS AND COMPOSITIONS FOR TREATING OR PREVENTING AN INFLAMMATORY CONDITION” (priority 2020, published 2023):

Key:
TNBS-induced colitis = assay: TNBS-induced colitis; assay type: in vivo, BALB/c mice; details: for Relative reduction in Colon to body weight ratio / Relative reduction in Total Colitis Index / Macroscopic damage score, relative reduction / Stool consistency score, relative reduction / MPO, relative reduction: HCQ 2.5 mg/kg, alone or combined; for Relative reduction in Total Colitis Index: histology of distal colon; for Macroscopic damage score, relative reduction / Stool consistency score, relative reduction / MPO, relative reduction: observed; for MPO, relative reduction: colon tissue
Excerpt: Male BALB/c were used as an in vivo model of colitis, induced by intracolonic administration of 2,4,6-trinitrobenzene sulfonic acid (TNBS) in 50% ethanol, as previously described by Antoniou et al. (2016, Annals of Medicine and Surgery, 11: 9-15). Briefly, the ethanol disrupts the intestinal barrier, permitting TNBS to interact with colon proteins. Interaction of TNBS with high-molecular weight proteins renders them immunogenic, leading to Th1 mediated inflammation, which is causative of symptoms include inconsistent stool formation and blood in the faeces.
Vehicle and active agents (i.e., CBD and hydroxychloroquine) alone or in combination were administered intraperitoneally (IP) once a day starting from Day 1 (i.e., 24 hours before TNBS) to Day 4, for a total of 4 consecutive days (Days 1-4). On the Day of TNBS challenge (i.e., Day 2), test articles and vehicle were given 2 hrs before TNBS.
Colon tissues were harvested in all animals at termination. Colon samples were taken at 0.5, 2, and 3.5 cm from the anus, fixed in formalin, and then embedded in paraffin blocks. Four-micrometer tissue sections were cut and stained with H&E for histological analysis in accordance with the method of Dieleman et al. (1998, Clinical Experimental Immunology, 114: 385-391). Histological criteria included: abnormalities of mucosal architecture, extent of inflammation, erosion or ulceration, epithelial regeneration, and the percentage involvement by the disease process. The scoring was based on the findings of the observers by examining three sections from each colon per animal. Total score for colitis (Total Colitis Index) were added, resulting in a combined histological score range from 0 to 60.
Other endpoint measures of stool consistency score (i.e., 0—normal stools, 1, soft but still formed stools, 2—very soft stools, 3—diarrhoea), faecal occult blood score (i.e., 0-negative hemoccult, 1—positive hemoccult, 2—blood traces in stool visible, 3—rectal bleeding), colon weight, colon macroscopic damage score (a composite of adhesions, strictures, ulcers/inflammations and wall thickness) and myeloperoxidase levels in the colon tissue were also assessed. The data from each of these endpoints was baseline subtracted using the equivalent measures from sham treated mice (i.e., no TNBS) and reduction in any measure calculated as a relative reduction. Synergy was calculated using the statistical methods described elsewhere herein.

[1] = Solubility of formulations for in vivo analysis (visual observation); assay type: physicochemical
Excerpt: Cannabidiol (CBD) and hydroxychloroquine (HCQ), were purchased by Pharmacology Discovery Services Taiwan, Ltd. The formulations are summarised in Table 3.

CCN(CCO)CCCC(C)Nc1ccnc2cc(Cl)ccc12 (stereo not shown) [HCQ]
Relative reduction in Colon to body weight ratio (TNBS-induced colitis; CBD 1 mg/kg): 0.287 | Relative reduction in Total Colitis Index (TNBS-induced colitis; CBD 1 mg/kg): 0.27 | Macroscopic damage score, relative reduction (TNBS-induced colitis; CBD 1 mg/kg): 0.05 | Stool consistency score, relative reduction (TNBS-induced colitis; CBD 1 mg/kg): 0.00 | MPO, relative reduction (TNBS-induced colitis; CBD 1 mg/kg): 0.00 | Colon tissue histology (H&E, 100×), FIG. 3 (TNBS-induced colitis; hydroxychloroquine 2.5 mg/kg): mild abnormality, cyctic dilation and aberrant crypts | Solubil. [1]: S

C=C(C)[C@@H]1CCC(C)=C[C@H]1c1c(O)cc(CCCCC)cc1O [CBD, cannabidiol]
Colon tissue histology (H&E, 100×), FIG. 3 (TNBS-induced colitis; CBD 1 mg/kg): inflammatory cell infiltration in submucosal edema | Relative reduction in Colon to body weight ratio (TNBS-induced colitis; CBD 1 mg/kg): 0.373 | Relative reduction in Total Colitis Index (TNBS-induced colitis; CBD 1 mg/kg): 0.25 | Macroscopic damage score, relative reduction (TNBS-induced colitis; CBD 1 mg/kg): 0.10 | Stool consistency score, relative reduction (TNBS-induced colitis; CBD 1 mg/kg): 0.17 | MPO, relative reduction (TNBS-induced colitis; CBD 1 mg/kg): 0.34
